Data set [1] has as its target T1, Undecaprenyl pyrophosphate synthase (UPPS) (Escherichia coli, UniProt P60472).
T1 construct: gene ispU
Briefly: enzyme activity dose-response with […] UPPS. The data set is classed as biochemical.

Data set [2] concerns the target T2, Undecaprenyl pyrophosphate synthase (UPPS) (Helicobacter pylori, UniProt P55984).
T2 sequence (P55984 1-234): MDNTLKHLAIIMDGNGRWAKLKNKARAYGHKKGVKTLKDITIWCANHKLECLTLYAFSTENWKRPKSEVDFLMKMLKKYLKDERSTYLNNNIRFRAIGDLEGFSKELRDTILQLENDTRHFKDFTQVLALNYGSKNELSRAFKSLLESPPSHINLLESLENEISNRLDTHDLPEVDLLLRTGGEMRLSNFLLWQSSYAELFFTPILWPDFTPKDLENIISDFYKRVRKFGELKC
Description: enzyme activity dose-response with […] UPPS. The data set is classed as biochemical.

The target of data set [3] is Undecaprenyl pyrophosphate synthase (UPPS) (Helicobacter pylori, UniProt P55984, C234A).
The subject of data set [4] is CC(C)=CCC/C(C)=C/CC/C(C)=C/CO[P@@](=O)(O)OP(=O)(O)O. Briefly: steady-state enzyme kinetics (Km). As to conditions: Mg2+. It counts as biochemical, Helicobacter pylori.
The subject of data set [5] is C=C(C)CCO[P@@](=O)(O)OP(=O)(O)O. Description: steady-state enzyme kinetics (Km). It counts as biochemical, Helicobacter pylori. As to conditions: Mg2+.
Substrate in data set [6]: C=C(C)CCO[P@@](=O)(O)OP(=O)(O)O
Description: steady-state enzyme kinetics (Km). The data set is classed as biochemical, Helicobacter pylori. Conditions: Mg2+. The source holds these as a separate data set.

Substrate in data set [7]: CC(C)=CCC/C(C)=C/CC/C(C)=C/CO[P@@](=O)(O)OP(=O)(O)O
Briefly: steady-state enzyme kinetics (Km). The data set is classed as biochemical, Helicobacter pylori. Conditions: Mg2+. This is another data set of the same source.

The values below come from publication PMC2276626, “Structure-Based Inhibitors Exhibit Differential Activities against Helicobacter pylori and Escherichia coli Undecaprenyl Pyrophosphate Synthases” (Journal of Biomedicine and Biotechnology, 2008).

T1 sequence (P60472 whole entry): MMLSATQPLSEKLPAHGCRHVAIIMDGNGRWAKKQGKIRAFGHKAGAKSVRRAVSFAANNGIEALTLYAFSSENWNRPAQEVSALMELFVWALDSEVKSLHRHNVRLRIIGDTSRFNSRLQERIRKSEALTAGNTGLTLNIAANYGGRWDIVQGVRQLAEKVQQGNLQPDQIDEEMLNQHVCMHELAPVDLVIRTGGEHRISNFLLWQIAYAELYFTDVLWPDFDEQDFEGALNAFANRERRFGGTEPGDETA

For orientation: IC50 means the concentration that gives 50% inhibition. Low readings indicate higher potency, high ones lower potency. Take `O=S(=O)(CS(=O)(=O)Nc1nc2ccc(Cl)cc2s1)Nc1nc2ccc(Cl)cc2s1` [BTB06061]: the IC50 in data set [1] is 71 µM; in data set [2], 350 µM.

In data set [2], `NS(=O)(=O)c1cccc(-c2ccc(C3Nc4ccccc4-c4nc5ccccc5n43)o2)c1` (centres unmarked) [HTS04781] displayed an IC50 of 362 µM.

For the molecule `O=P(O)(O)OP(=O)(O)O` [pyrophosphate], in data set [3], the “X-ray crystal structure at 2.5 Å (crystals soaked with FsPP, IPP and MgCl2); only” value is on record as “only the pyrophosphate of FsPP was found in the complex structure”. Usually Km stands for the substrate concentration at which the rate is half of its maximum. For the molecule “Undecaprenyl pyrophosphate synthase (UPPS) (Helicobacter pylori 26695; C234A)”, the Km amounted to 0.15 ± 0.04 µM in data set [4] and 9.6 ± 0.2 µM in data set [5].

B1: Undecaprenyl pyrophosphate synthase (UPPS) (Helicobacter pylori 26695) (protein)
chain: MDNTLKHLAIIMDGNGRWAKLKNKARAYGHKKGVKTLKDITIWCANHKLECLTLYAFSTENWKRPKSEVDFLMKMLKKYLKDERSTYLNNNIRFRAIGDLEGFSKELRDTILQLENDTRHFKDFTQVLALNYGSKNELSRAFKSLLESPPSHINLLESLENEISNRLDTHDLPEVDLLLRTGGEMRLSNFLLWQSSYAELFFTPILWPDFTPKDLENIISDFYKRVRKFGELKC
Consider B1, for which the Km in data set [6] was 9.2 ± 0.1 µM; in data set [7], 0.11 ± 0.02 µM.
